Data from ChEMBL document CHEMBL5724914, “Linking interpersonal differences in gut microbiota composition and drug biotransformation activity” (2024).

How the values were obtained:
[1] = human gut metagenome, 24 h, 2 µM
[2] = (§1) The drug is tested on Z-003 corresponding to pig gut metagenome with ENA study accession number: PRJEB37062 and ENA sample accession number: ERS12561803 for biotransformation under anaerobic condition. The drug concentrations were measured over 9 timepoints collected between 0 and 24 hours of incubation by liquid-chromatography-coupled mass spectrometry (LC–MS); details: 2 µM
[3] = human gut metagenome, 24 h, 2 µM; remark: listed apart in the source
[4] = human gut metagenome, 24 h, 2 µM; remark: listed apart in the source
[5] = as §1, with “WLS-370” for “Z-003”, “human” for “pig”, “ERS12561793” for “ERS12561803”; details: 2 µM
[6] = human gut metagenome, 24 h, 2 µM; remark: listed apart in the source
[7] = as §1, with “WLS-082” for “Z-003”, “human” for “pig”, “ERS12561751” for “ERS12561803”; details: 2 µM
[8] = as §1, with “Z-021” for “Z-003”, “to” for “to pig gut”, “ERS12561820” for “ERS12561803”; details: 2 µM
[9] = as §1, with “Z-026” for “Z-003”, “to” for “to pig gut”, “ERS12561825” for “ERS12561803”; details: 2 µM
Further: call rule not given here.

Row | SMILES | Bacterial Biotransformation [1] | Bacterial Biotransformation [2] | Bacterial Biotransformation [3] | Bacterial Biotransformation [4] | Bacterial Biotransformation [5] | Bacterial Biotransformation [6] | Bacterial Biotransformation [7] | Bacterial Biotransformation [8] | Bacterial Biotransformation [9]
1 | COC(=O)C1=C(C)NC(C)=C(C(=O)OC(C)C)C1c1cccc2nonc12 (centres undefined) [ISRADIPINE] | Compound metabolized | Compound metabolized | Compound metabolized | Compound metabolized | Compound metabolized | Compound NOT metabolized | Compound metabolized | – | –
2 | O=C(O)CCc1nc(-c2ccccc2)c(-c2ccccc2)o1 [OXAPROZIN] | Compound metabolized | Compound metabolized | Compound metabolized | Compound metabolized | Compound metabolized | Compound metabolized | Compound metabolized | Compound metabolized | Compound NOT metabolized
3 | NC(CO)(CO)CO.O=C(c1ccccc1)c1ccc2n1CCC2C(=O)O (centres undefined) [KETOROLAC TROMETHAMINE] | Compound metabolized | Compound metabolized | Compound metabolized | Compound metabolized | Compound metabolized | Compound metabolized | Compound metabolized | Compound metabolized | Compound NOT metabolized
4 | NS(=O)(=O)c1cc2c(cc1Cl)N=C(CSCc1ccccc1)NS2(=O)=O [BENZTHIAZIDE] | Compound NOT metabolized | Compound NOT metabolized | Compound NOT metabolized | Compound NOT metabolized | Compound NOT metabolized | Compound NOT metabolized | Compound NOT metabolized | Compound metabolized | Compound NOT metabolized
5 | Nc1ccc(/N=N/c2ccccc2)c(N)n1 [PHENAZOPYRIDINE] | Compound metabolized | Compound metabolized | Compound metabolized | Compound metabolized | Compound metabolized | Compound metabolized | Compound metabolized | Compound metabolized | Compound metabolized
6 | CC(=O)OCC(=O)[C@@]12N=C(C)O[C@@H]1C[C@H]1[C@@H]3CCC4=CC(=O)C=C[C@]4(C)[C@H]3[C@@H](O)C[C@@]12C [DEFLAZACORT] | Compound metabolized | Compound metabolized | Compound metabolized | Compound metabolized | Compound metabolized | Compound metabolized | Compound metabolized | Compound metabolized | Compound metabolized
7 | CN1CCc2cccc3c2[C@H]1Cc1ccc(O)c(O)c1-3 [APOMORPHINE] | Compound NOT metabolized | Compound metabolized | Compound NOT metabolized | Compound NOT metabolized | Compound NOT metabolized | Compound NOT metabolized | – | Compound NOT metabolized | Compound NOT metabolized
8 | CN(C(=O)CN(CCO)CC(=O)N(C)C(C)(C)Cc1ccccc1)C(C)(C)Cc1ccccc1 [OXETHAZAINE] | Compound metabolized | – | Compound metabolized | Compound metabolized | Compound metabolized | Compound NOT metabolized | Compound metabolized | – | –
9 | CN1CCN(CC/C=C2/c3ccccc3Sc3ccc(S(=O)(=O)N(C)C)cc32)CC1 [THIOTHIXENE] | Compound NOT metabolized | – | Compound metabolized | Compound NOT metabolized | Compound metabolized | Compound metabolized | Compound metabolized | – | –
10 | CCC1(c2ccc(N)cc2)CCC(=O)NC1=O (centres undefined) [AMINOGLUTETHIMIDE] | Compound NOT metabolized | Compound NOT metabolized | Compound NOT metabolized | Compound NOT metabolized | Compound NOT metabolized | Compound NOT metabolized | Compound NOT metabolized | – | –
11 | C[C@@H]1CC[C@H]2[C@@H](C)C(=O)O[C@@H]3O[C@@]4(C)CC[C@@H]1[C@]32OO4 [ARTEMISININ] | – | – | Compound metabolized | Compound metabolized | Compound metabolized | – | Compound metabolized | Compound metabolized | Compound metabolized
12 | C#C[C@]1(O)CC[C@H]2[C@@H]3CCC4=Cc5oncc5C[C@]4(C)[C@H]3CC[C@@]21C [DANAZOL] | Compound metabolized | Compound metabolized | Compound metabolized | – | – | – | Compound metabolized | Compound metabolized | Compound metabolized
13 | COc1c2occc2cc2ccc(=O)oc12 [METHOXSALEN] | Compound NOT metabolized | Compound metabolized | Compound metabolized | Compound metabolized | Compound metabolized | Compound metabolized | – | Compound metabolized | Compound metabolized
14 | CN(C)CCc1c[nH]c2ccc(Cn3cncn3)cc12.O=C(O)c1ccccc1 [RIZATRIPTAN BENZOATE] | Compound NOT metabolized | Compound NOT metabolized | Compound NOT metabolized | Compound NOT metabolized | Compound NOT metabolized | Compound NOT metabolized | – | Compound NOT metabolized | Compound NOT metabolized
15 | OC(CCN1CCCCC1)(c1ccccc1)C1CC2C=CC1C2 (centres undefined) [BIPERIDEN] | Compound metabolized | – | Compound NOT metabolized | Compound NOT metabolized | Compound metabolized | Compound NOT metabolized | Compound NOT metabolized | – | –
16 | CS(=O)(=O)O.O.O.O.O=C1Cc2cc(CCN3CCN(c4nsc5ccccc45)CC3)c(Cl)cc2N1 [ZIPRASIDONE MESYLATE] | Compound metabolized | – | Compound metabolized | Compound NOT metabolized | Compound NOT metabolized | Compound NOT metabolized | Compound metabolized | – | –
17 | CC(=O)O[C@]1(C(C)=O)CC[C@H]2[C@@H]3C=C(Cl)C4=CC(=O)[C@@H]5C[C@@H]5[C@]4(C)[C@H]3CC[C@@]21C [CYPROTERONE ACETATE] | Compound metabolized | Compound metabolized | Compound metabolized | Compound metabolized | Compound metabolized | Compound metabolized | Compound NOT metabolized | – | –
18 | CN1C[C@H](C(=O)N[C@]2(C)O[C@@]3(O)[C@@H]4CCCN4C(=O)[C@H](Cc4ccccc4)N3C2=O)C=C2c3cccc4[nH]cc(c34)C[C@H]21.CN1C[C@H](C(=O)N[C@]2(C)O[C@@]3(O)[C@@H]4CCCN4C(=O)[C@H](Cc4ccccc4)N3C2=O)C=C2c3cccc4[nH]cc(c34)C[C@H]21.O=C(O)C(O)C(O)C(=O)O [ERGOTAMINE TARTRATE] | Compound metabolized | – | – | Compound metabolized | Compound metabolized | Compound metabolized | – | – | –
19 | COc1ccccc1N1CCN(CC(O)COc2cccc3ccccc23)CC1 (centres undefined) [NAFTOPIDIL] | Compound NOT metabolized | Compound NOT metabolized | Compound NOT metabolized | Compound NOT metabolized | Compound NOT metabolized | Compound NOT metabolized | Compound NOT metabolized | Compound metabolized | –
20 | Cc1nc2n(c(=O)c1CCN1CCC(c3noc4cc(F)ccc34)CC1)CCCC2O (centres undefined) [PALIPERIDONE] | Compound metabolized | Compound NOT metabolized | Compound metabolized | Compound metabolized | Compound metabolized | Compound metabolized | – | Compound metabolized | Compound NOT metabolized
21 | O=C1[C@H](CC[C@H](O)c2ccc(F)cc2)[C@@H](c2ccc(O)cc2)N1c1ccc(F)cc1 [EZETIMIBE] | Compound NOT metabolized | Compound NOT metabolized | Compound NOT metabolized | Compound NOT metabolized | Compound metabolized | Compound NOT metabolized | Compound metabolized | – | Compound NOT metabolized
